{"source": "patent US20190125745A1", "about": "“TREATMENT AND DIAGNOSIS OF CANCER” (Rgenix, Inc., priority 2014, published 2019)", "tested_on": "MeWo, HT-144, SK-Mel-2, SK-Mel-334.2 human melanoma cells", "assay": "Cell invasion assay (trans-well matrigel)", "format": "cell-based", "conditions": "MeWo, 1 μM, 72 hours", "text": "FIG. 2. Activation of LXRβ Signaling Suppresses Melanoma Cell Invasion and Endothelial Recruitment. (A) Heat-map depicting microarray-based expression levels of LXR and RXR isoforms in the NCI-60 melanoma cell line collection. The heat map for these genes is extracted from the larger nuclear hormone receptor family heat map (FIG. 3). Color-map key indicates the change in standard deviations for the expression value of each receptor relative to the average expression value of all microarray-profiled genes (>39,000 transcript variants) in each cell line. (B) Cell invasion by 1×10^5 MeWo, 5×10^4 HT-144, 5×10^5 SK-Mel-2, and 5×10^4 SK-Mel-334.2 human melanoma cells. Cells were treated with DMSO, GW3965, T0901317, or Bexarotene at 1 μM for 72 hours and subjected to a trans-well matrigel invasion assay. n=4-8. (C) 5×10^4 MeWo, HT-144, SK-Mel-2, and SK-Mel-334.2 human melanoma cells were tested for their ability to recruit 1×10^5 endothelial cells in a trans-well migration assay, following treatment of the melanoma cells with DMSO, GW3965, T0901317, or Bexarotene at 1 μM for 72 hours. n=4-8. […] Scale bar, 50 μm. *p<0.05, **p<0.01, ***p<0.001, ****p<0.0001.\nThe cell invasion assay was performed as previously described in detail (Pencheva et al., 2012) using a trans-well matrigel invasion chamber system (354480, BD Biosciences). In brief, various melanoma cells were cultured in the presence of DMSO, GW3965, T0901317, or Bexarotene at 1 μM for 56 hours, after which melanoma cells were switched to starvation media (0.2% FBS) for 16 hours in the presence of each drug. Following starvation, cells were seeded into matrigel-coated trans-well inserts, and the invasion assay was allowed to proceed for 24 hours at […]. For ApoE antibody neutralization experiments, 40 μg/mL 1 D7 anti-ApoE blocking antibody (Heart Institute, University of Ottawa, Ottawa, Canada) or […] anti-IgG control antibody (AB-108-C, R&D Systems, Minneapolis, Minn.) was added to each trans-well insert at the start of the assay.\nThe cells were then serum starved for 16 hours in 0.2% FBS media in the presence of each corresponding drug or DMSO. Following serum starvation, the cells were subjected to the trans-well invasion assay using a matrigel invasion chamber system (354480, BD Biosciences). Invasion chambers were pre-equilibrated prior to the assay by adding 0.5 mL of starvation media to the top and bottom wells. Meanwhile, cancer cells were trypsinized and viable cells were counted using trypan blue. Cancer cells were then resuspended at a concentration of 2×10^5 cells/1 mL starvation media, and 0.5 mL of cell suspension, containing 1×10^5 cells, was seeded into each trans-well. The invasion assay was allowed to proceed for 24 hours at 37° C. […] Following fixation, the inserts were washed in PBS, cut out, and mounted onto slides using VectaShield mounting medium containing DAPI nuclear stain (H-1000, Vector Laboratories). The basal side of each insert was imaged using an inverted fluorescence microscope (Zeiss Axiovert 40 CFL) at 5× magnification, and the number of DAPI-positive cells was quantified using ImageJ.", "note": "Structures can show the parent of a compound that is named as a salt."}
{"smiles": "O=C(O)Cc1cccc(OCCCN(Cc2cccc(C(F)(F)F)c2Cl)CC(c2ccccc2)c2ccccc2)c1", "note": "[GW3965 108, 3-[3-[N-(2-Chloro-3-trifluoromethylbenzyl)-(2,2-diphenylethyl)amino]propyloxy] phenylacetic acid hydrochloride]", "values": [{"measurement": "suppression of cell invasion and endothelial recruitment upon knockdown of ApoE in melanoma cells", "value": "blocked"}, {"measurement": "ability to suppress invasion and endothelial recruitment upon knockdown of melanoma LXRβ, but not LXRα", "setting": "HT-144", "value": "abrogated"}]}
